Our source for the EC50 and Ki values is patent publication US20240398781A1, “SPIROCYCLIC CYCLIC MODULATORS OF CHOLESTEROL BIOSYNTHESIS AND THEIR USE FOR PROMOTING REMYELINATION” (GENENTECH, INC., priority 2021, published 2024).

Where two headings read alike, the source gives them in different places.

Experiment [1] has as its system EBP (zymostenol accumulation in EpiSC-derived OPCs). Briefly: GC/MS-based sterol profiling, zymostenol accumulation in OPCs. In kind it is cell-based, mouse. The settings on record: read-out: Zymostenol GCMS EC50. The method in brief:
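EpiSC-derived OPCs (100,000/well) were treated 24 h in N2B27 without growth factors. Sterols were TMS-derivatized and analysed by GC/MS full-scan EI, quantified against cholesterol-d7. Zymostenol was normalized to the level after 24 h with 100 nM positive control reference.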

The next experiment has as its target human EBP (Homo sapiens (Human), UniProt Q15125). Briefly: Competition binding assay (SPA, [3H]-Ifenprodil) to determine compound affinity to EBP. The settings on record: read-out: hEBP SPA Ki. As to the method: Membrane preparation: To examine compound binding affinity to EBP, human EBP was overexpressed in human embryonic kidney 293 cells. Cell pellet was lysed in 10 times weight binding buffer (50 mM Tris, 5 mM MgCl2, 0.1 mM EDTA, lx protease inhibitor cocktail, pH 7.5) on ice by using a dounce homogenizer. The solution was centrifuged at 25,000 g for 50 min at 4° C. The membrane pellet was re-suspended in binding buffer and run through a 25 5/8 gauge needle. After checking the concentration by Bradford assay, the whole cell membrane solution was adjusted to 20 mg/mL and stored at −80° C.
This binding solution was centrifuged at 400 g for 5 minutes to collect the bead/membrane mixture. After re-suspending the pellet in binding buffer at the same calculated volume with 0.01% BSA (Sigma A1933), the bead/membrane mixture was added in 384-well low-binding surface plate (PerkinElmer Cat #6057480) at 25 μl/well. Radioligand at different concentrations with and without the non-radio-labeled same ligand 5 uM (for nonspecific and total signal, respectively) was added to bring final volume to 50 µl/well with DMSO concentration at 0.1%. At equilibrium (3 hours after ligand addition), radiometric signal CPM was counted by using a Microbeta2 microplate counter (Perkinelmer).
Competition binding assay to determine compound affinity: The same conditions of the radioligand Kd study were used for compound single dose percentage inhibition and equilibrium dissociation constant Ki examinations, except 50 nL compound DMSO stock was pre-added in 384-well low-binding surface plate (PerkinElmer Cat #6057480) by Echo 550 (Labcyte) to reach the final concentration for single dose test at 1 uM, and dose response test from 0.06 nM to 5 uM (8 dose, 5 times dilution). A pre-incubated bead/membrane mixture was added in compound plate at 0.3 mg beads and […] membrane per well. […] At equilibrium (3 hours after ligand addition), radiometric signal was counted as described above. The percentage inhibition of compound at each testing concentration was calculated by normalizing each condition's CPM readout to full block (5 uM non-radiolabeled ligand) and non-block (DMSO) control conditions. Compound binding inhibition IC50 was determined by nonlinear regression fitting of percentage inhibition plot against compound concentration. Compound Ki was calculated from the equation Ki=IC50/(1+[L]/Kd), which [L] was radioligand concentration used in assay. All tests had N bigger or equal to 2.

[2] abbreviates: Mus musculus, 24 h, EpiSC-derived OPCs, 24 hr treatment, 8 doses from 0.15 nM to 333 nM.
The mark [3] stands for this setting: [3H]-Ifenprodil 10 nM, HEK293 membrane overexpressing human EBP, Ki=IC50/(1+[L]/Kd).
Where [4] appears, read: EpiSC-derived OPCs, 24 hr treatment, 8 doses from 0.15 nM to 333 nM.

Sequence of human EBP (Q15125 whole entry): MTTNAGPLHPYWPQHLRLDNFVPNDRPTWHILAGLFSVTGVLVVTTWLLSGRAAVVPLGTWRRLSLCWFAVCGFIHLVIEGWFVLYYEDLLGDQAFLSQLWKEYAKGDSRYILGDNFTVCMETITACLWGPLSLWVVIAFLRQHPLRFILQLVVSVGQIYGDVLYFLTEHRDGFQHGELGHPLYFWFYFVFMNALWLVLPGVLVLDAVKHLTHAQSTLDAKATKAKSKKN

On to `O=S1(=O)CC2(CCN([C@H]3CCN(c4ccc(C(F)(F)F)nc4)C3)C2)C1` (single isomer, unassigned) [9A*], for which the EC50 in experiment [1] (setting [2]) was 10 nM. Further, the Ki at human EBP (setting [3]) was 34 nM.
The corresponding values for `O=S1(=O)CC2(CCN([C@@H]3CCN(c4ccc(C(F)(F)F)nc4)C3)C2)C1` (single isomer, unassigned) [9B*] are 394 nM and 170 nM.
With `CC(C)n1nc(C(F)(F)F)cc1[C@H]1CC[C@H](N2CCC3(C2)CS(=O)(=O)C3)C1` (single isomer, unassigned) [10A*], in experiment [1] (setting [2]), the EC50 was determined as 2.8 nM. Besides, the Ki on human EBP (setting [3]) came out at 34 nM.
Regarding `CC(C)n1nc(C(F)(F)F)cc1[C@H]1CC[C@@H](N2CCC3(C2)CS(=O)(=O)C3)C1` (single isomer, unassigned) [10B*], the EC50 in experiment [1] (setting [2]) was determined as 2.9 nM. Further, the Ki on human EBP (setting [3]) stood at 19 nM.
Consider `CC(C)n1nc(C(F)(F)F)cc1[C@@H]1CC[C@H](N2CCC3(C2)CS(=O)(=O)C3)C1` (single isomer, unassigned) [10C*], for which the EC50 in experiment [1] (setting [2]) was found to be 3 nM. For the same compound, the Ki at human EBP (setting [3]) was found to be 29 nM.
The corresponding values for `O=S1(=O)CC2(CCN([C@@H]3CC[C@H](c4ccc(C(F)(F)F)nc4)C3)C2)C1` (single isomer, unassigned) [11C*] are 4.1 nM and 35 nM.
For the compound `O=S1(=O)CC2(CCN(C3CC[C@H](c4ccc(C(F)(F)F)nc4)C3)C2)C1` (single isomer, unassigned) [11D*], the EC50 in experiment [1] (setting [2]) turned out to be 44 nM. The Ki on human EBP was found to be 40 nM.
For `CC(C)n1nc(-c2cncc(C(F)(F)F)c2)cc1[C@H]1CC[C@@H](N2CCC3(C2)CS(=O)(=O)C3)C1` (single isomer, unassigned) [13A*], the EC50 in experiment [1] (setting [2]) came to 0.91 nM. Also, the Ki on human EBP (setting [3]) turned out to be 15 nM.
Regarding `CC(C)n1nc(-c2cncc(C(F)(F)F)c2)cc1[C@@H]1CC[C@H](N2CCC3(C2)CS(=O)(=O)C3)C1` (single isomer, unassigned) [13B*], the EC50 in experiment [1] (setting [2]) was 0.9 nM. Also, on human EBP (setting [3]), the Ki was 25 nM.
The corresponding values for `CC(C)n1nc(-c2cncc(C(F)(F)F)c2)cc1[C@@H]1CC[C@@H](N2CCC3(C2)CS(=O)(=O)C3)C1` (single isomer, unassigned) [13C*] are 4.1 nM and 21 nM.
On the same counts, the results for `CC(C)n1nc(-c2cncc(C(F)(F)F)c2)cc1[C@H]1CC[C@H](N2CCC3(C2)CS(=O)(=O)C3)C1` (single isomer, unassigned) [13D*] are 1.2 nM and 71 nM.
The corresponding values for `CC(C)n1nc(-c2ccc(C(F)(F)F)nc2)nc1[C@H]1CC[C@H](N2CCC3(C2)CS(=O)(=O)C3)C1` (single isomer, unassigned) [17B*] are 4 nM and 31 nM.
Turning to `CC(C)n1nc(-c2ccc(C(F)(F)F)nc2)nc1[C@H]1CC[C@@H](N2CCC3(C2)CS(=O)(=O)C3)C1` (single isomer, unassigned) [17D*], the EC50 in experiment [1] (setting [2]) turned out to be 3.5 nM. Further, the Ki on human EBP (setting [3]) amounted to 20 nM.
With `CC(C)n1nc(C2CC2)nc1[C@@H]1CC[C@H](N2CCC3(C2)CS(=O)(=O)C3)C1` (single isomer, unassigned) [18A*], the 50% effective concentration (EC50) in experiment [1] (Mus musculus, 24 h) was determined as 72 nM. In addition, the Ki on human EBP (setting [3]) came to 310 nM.
With `CC(C)n1nc(C2CC2)nc1[C@H]1CC[C@H](N2CCC3(C2)CS(=O)(=O)C3)C1` (single isomer, unassigned) [18B*, 6-(3-(3-cyclopropyl-1-isopropyl-1H-1,2,4-triazol-5-yl)cyclopentyl)-2-thia-6-azaspiro[3.4]octane 2,2-dioxide], the EC50 in experiment [1] (setting [2]) came to 200 nM. Also, on human EBP (setting [3]), the inhibitory constant (Ki) stood at 210 nM.
On the same counts, the results for `CC(C)n1nc(C2CC2)nc1[C@@H]1CC[C@@H](N2CCC3(C2)CS(=O)(=O)C3)C1` (single isomer, unassigned) [18C*] are 54 nM and 82 nM.
On the same counts, the results for `CC(C)n1nc(C2CC2)nc1[C@H]1CC[C@@H](N2CCC3(C2)CS(=O)(=O)C3)C1` (single isomer, unassigned) [18D*, 6-(3-(3-cyclopropyl-1-isopropyl-1H-1,2,4-triazol-5-yl)cyclopentyl)-2-thia-6-azaspiro[3.4]octane 2,2-dioxide] are 120 nM and 270 nM.
For `CC(C)n1cc(C(F)(F)F)nc1[C@H]1CC[C@H](N2CCC3(C2)CS(=O)(=O)C3)C1` (single isomer, unassigned) [20A*], in experiment [1] (setting [2]), the EC50 turned out to be 240 nM. Besides, the Ki on human EBP (setting [3]) came out at 280 nM.
On to `CC(C)n1cc(C(F)(F)F)nc1[C@@H]1CC[C@@H](N2CCC3(C2)CS(=O)(=O)C3)C1` (single isomer, unassigned) [20B*], for which, in experiment [1] (Mus musculus, 24 h), the half-maximal effective concentration (EC50) stood at 19 nM. Further, the Ki on human EBP (setting [3]) was 55 nM.
Turning to `CC(C)n1cc(C(F)(F)F)nc1[C@H]1CC[C@@H](N2CCC3(C2)CS(=O)(=O)C3)C1` (single isomer, unassigned) [20C*], in experiment [1] (setting [2]), the EC50 worked out at 310 nM. For the same compound, the Ki on human EBP (setting [3]) came out at 270 nM.
The corresponding values for `CC(C)n1cc(C(F)(F)F)nc1[C@@H]1CC[C@H](N2CCC3(C2)CS(=O)(=O)C3)C1` (single isomer, unassigned) [20D*] are 38 nM and 98 nM.
The corresponding values for `O=S1(=O)CC2(CCN([C@@H]3CCCN(c4ccc(C(F)(F)F)cc4)C3)C2)C1` (single isomer, unassigned) [22A*] are 2 nM and 34 nM.
On to `O=S1(=O)CC2(CCN([C@H]3CCCN(c4ccc(C(F)(F)F)cc4)C3)C2)C1` (single isomer, unassigned) [22B*], for which, in experiment [1] (setting [2]), the EC50 was determined as 35 nM. Moreover, on human EBP (setting [3]), the Ki turned out to be 70 nM.
On the same counts, the results for `Cn1nc(C(F)(F)F)cc1[C@H]1CC[C@H](N2CCC[C@@]3(CCS(=O)(=O)C3)C2)CC1` (single isomer, unassigned) [26A*] are 4 nM and 33 nM.
The corresponding values for `Cn1nc(C(F)(F)F)cc1[C@H]1CC[C@H](N2CCC[C@]3(CCS(=O)(=O)C3)C2)CC1` (single isomer, unassigned) [26B*] are 38 nM and 21 nM.
On the same counts, the results for `Cn1nc(C(F)(F)F)cc1[C@H]1CC[C@H](N2CC[C@@]3(CCS(=O)(=O)C3)C2)CC1` (single isomer, unassigned) [27A*] are 26 nM and 39 nM.
Turning to `Cn1nc(C(F)(F)F)cc1[C@H]1CC[C@H](N2CC[C@]3(CCS(=O)(=O)C3)C2)CC1` (single isomer, unassigned) [27B*], in experiment [1] (setting [2]), the EC50 turned out to be 22 nM. In addition, the inhibitory constant (Ki) on human EBP (setting [3]) came to 46 nM.
On the same counts, the results for `Cn1nc(C(F)(F)F)cc1[C@H]1CC[C@@H](N2CC[C@]3(CCS(=O)(=O)C3)C2)CC1` (single isomer, unassigned) [38A*] are 49 nM and 27 nM.
As to `Cn1nc(C(F)(F)F)cc1[C@H]1CC[C@@H](N2CC[C@@]3(CCS(=O)(=O)C3)C2)CC1` (single isomer, unassigned) [38B*], in experiment [1] (setting [2]), the EC50 was 60 nM. Further, at human EBP (setting [3]), the Ki is 24 nM.
Consider `Cn1nc(C(F)(F)F)cc1[C@H]1CC[C@H](N2CC[C@]3(CCS(=O)(=O)C3)C2)CC1` (single isomer, unassigned) [38C*], for which, in experiment [1] (setting [4]), the EC50 was 20 nM. Besides, the Ki at human EBP (setting [3]) worked out at 29 nM.
For the compound `Cn1nc(C(F)(F)F)cc1[C@H]1CC[C@H](N2CC[C@@]3(CCS(=O)(=O)C3)C2)CC1` (single isomer, unassigned) [38D*], the EC50 in experiment [1] (setting [4]) turned out to be 40 nM. In addition, the inhibitory constant (Ki) on human EBP (setting [3]) is 27 nM.

As a reminder, the EC50 is the concentration giving half of the maximal effect. What is called Ki is a measure of affinity in units of concentration, obtained from inhibition or displacement.
